Measurements as given in US8834848B2, “Flow and volume regulated inhalation for treatment of severe oral corticosteroid-dependent asthma” (Activaero GmbH Research & Development, priority 2009, dated 2014).

Experiments:
[1] = Clinical trial: budesonide serum concentration analysis; assay type: in vivo, human; details: baseline to week 18; roughly 12 hours dosing interval
Procedure: For budesonide serum concentration analysis, blood was drawn in all four investigated groups either before inhalation or 30-60 minutes following inhalation at baseline (post-inhalation) and at week 18 (pre- and post-inhalation). Results are seen in FIG. 10.

[2] = after IV or inhalation administration; cited from earlier work
[3] = system: oral steroid-dependent asthma subjects; details: nominal 4-8 mg daily, conventional nebulizer; cited from earlier work
[4] = human, in vivo
Procedure: Thus the flow-controlled, slow inhalation at about 200 ml/sec enables maximum drug deposition in the target area of small airways. As further seen in FIG. 12, such inhalation method leads to an alveolar drug deposition of 40 to 50%. In contrast, alveolar deposition is below 10% when using a high inspiratory flow rate of 1000 ml/sec and a small inhalation volume of 350 ml, and it is 20-30% when using an inspiratory flow rate of 1000 ml/sec and an inhalation volume of 1800 ml. It is thus preferred to combine the controlled, slow flow rate of e.g. 200 ml/sec with higher inhalation volumes. As mentioned above, said inhalation volumes depend on the individual patient's lung function and the severity grade of the pulmonary disease, but in cooperation between physician and patient, a volume as high as is well tolerable for the patient can be chosen (see also Table 7).

[5] = system: children with acute exacerbated asthma; details: nebulized; cited from earlier work
[6] = system: patients with chronic oral dependent asthma; details: cited from earlier work
asthma patients = details: cited from earlier work
healthy volunteers = details: inhalation; cited from earlier work
chronic asthma = details: at half the daily dose of beclomethasone or budenoside; cited from earlier work
asthmatic children = details: 50 or 100 μg twice a day via dry powder inhaler; cited from earlier work
[7] = system: patients with severe chronic asthma; details: 500 or 1000 μg twice daily; cited from earlier work
[8] = system: asthma in adults and children; details: 2000 μg once a day, AKITA protocol; cited from earlier work

| accumulation of budesonide in serum [1] | alveolar drug deposition [4] | SMILES | elimination half-life [2] [h] | subjects with side effects like oral thrush or disturbing sore throat [3] [%] | efficacy compared to oral prednisolone [5] | patients who discontinued the treatment ([6]; 4000 μg/day nebulized) [%] | reduction in the need for orally administered prednisone, 4000 μg versus 1000 μg per day ([6]; nebulized, bid) | reduction of need for oral prednisolone (asthma patients; 2000 μg per day versus 1500 or 1000 μg/day) | hoarseness and oral candidiasis (asthma patients; higher doses) | relative lung dose, large volume (750 ml) spacer versus nebulizer (healthy volunteers) | adverse side effects (chronic asthma) | effect on FEV1 (chronic asthma) | patients reporting adverse effects (asthmatic children) [%] | adverse effects [7] | oral corticosteroid-sparing effect [7] | FEV1 improvement [8] [%] | amount of administered dose that reached the central portion of the lungs (estimated) [8] [µg] | reduction in oral steroid use [8] [%] |
| --- | --- | --- | --- | --- | --- | --- | --- | --- | --- | --- | --- | --- | --- | --- | --- | --- | --- | --- |
| did not accumulate in serum | 40-50% | CCCC1O[C@@H]2C[C@H]3[C@@H]4CCC5=CC(=O)C=C[C@]5(C)[C@H]4[C@@H](O)C[C@]3(C)[C@]2(C(=O)CO)O1 (stereo partly drawn) [budesonide] | 2.2 to 4.5 | 11 |  |  |  |  |  |  |  |  |  |  |  |  |  |  |
|  |  | CCC(=O)O[C@]1(C(=O)SCF)[C@H](C)C[C@H]2[C@@H]3C[C@H](F)C4=CC(=O)C=C[C@]4(C)[C@@]3(F)[C@@H](O)C[C@@]21C [fluticasone propionate] |  |  | at least as effective as oral prednisolone | 37 | significantly greater | more likely to reduce a need for oral prednisolone | significantly greater | sevenfold | higher risk of pharyngitis and other adverse side effects | improvement of forced expiratory volume in the first second (FEV1) | 51 | topical adverse effects associated with inhaled corticosteroids were observed | eliminated a need for oral prednisone | 17.1 | 500 to 700 | 33.2 |
